Assay type: physicochemical
Details: for Head-space: headspace above about 2E+06 ng/mL solution in isopropyl myristate (IPM); for Head-space / Air/IPM partition coef: 30° C., average of three replicates; for Air/IPM partition coef: in isopropyl myristate (IPM)
Procedure: Perfume headspace data is collected for various materials according to the method provided below.
The partition coefficients are calculated by determining the amount of PRM in the headspace above a solution with a known concentration using a GC/FID-MS (Agilent 7890 and 5977A MSD) with a thermal desorption unit (Gerstel MPS2) and Dynamic Headspace Sampler (Gerstel DHS). This technique allows for automated headspace collections using the MultiPurposeSampler (MPS). The PRMs of interest are prepared at a known concentration in isopropyl myristate (IPM) or propylene glycol monomethyl ether (DPM), and 1 mL is pipetted in a 20 mL headspace vial.
DHS Conditions: The sample is tempered in the unit at 30° C. A helium stream at 10 mls/min purges 20 mL of headspace containing the analytes above the sample onto the sorbent tube (TDU) containing 25 mg of TenaxTA 35/60 (Restek cat #25701).
TDU conditions: The sorbent tube is desorbed with a program starting at 30° C. solvent vent for 2 min then ramped at 720° C./min to 270° C. and held for 8 min. The analytes are refocused on a glass bead liner at −60° C. then desorbed at a rate of 12° C./s to 270° C. onto the GC column.
GC/MS conditions: Agilent 122-5532 UI column of 30 m×250 μm×0.25 μm and a flow rate of 1.5 mL/min is utilized. A temperature program of 50° C. to 280° C. with a 2 min hold and a ramp rate of 12° C./min is suitable. Scan or SIM mode MSD parameters with a solvent delay for the DPM are applied to achieve appropriate detection.
Analytical standards can be obtained from AK Scientific, Inc., Union City, CA 94587, USA. A stock solution is prepared at approximately 0.5 g/L. The stock solution is then diluted to 4 to 5 concentrations ranging from approximately 0.05 g/L to 0.00005 g/L. These standard solutions are then analyzed by GC/MS. This analysis is performed by using the same TDU desorption and GC/MS conditions described above with a 1 μL liquid injection onto the TDU tube instead of the DHS collection. The amount injected on column and the area responses of the target m/z are utilized to create a calibration plot with a linear fit.
Quantification of the headspace is performed by the PRM target m/z area response of the perfume component and the linear equation of the calibration plot.
Perfume headspace data is collected for various materials according to the Headspace Method provided above in the Test Methods section. The Air/Solvent partition coefficients are determined and indexed accordingly (e.g., where the partition coefficient for OTNE is set at 1.00).
Results for 2-adamantyl propanoate, 2-adamantyl acetate, and 2-methyl-2-adamantyl acetate in isopropyl myristate (IPM) are provided below in Table 1.

Compound	OTNE Indexed Air/IPM partition coefficient	Head-space [ng/mL]	Air/IPM partition coef
CC(=O)OC1C2CC3CC(C2)CC1C3 (stereo not drawn) [2-adamantyl acetate]	8.30	0.1793	8.66E−08 ng/mL in air per ng/mL in IPM
CCC(=O)OC1C2CC3CC(C2)CC1C3 (stereo not drawn) [2-adamantyl propanoate]	5.47	0.1182	5.71E−08 ng/mL in air per ng/mL in IPM
CC(=O)OC1(C)C2CC3CC(C2)CC1C3 (stereo not drawn) [2-methyl-2-adamantyl acetate]	8.67	0.1874	9.05E−08 ng/mL in air per ng/mL in IPM
CC(=O)C1(C)CC2=C(CCCC2(C)C)CC1C (stereo not drawn) [OTNE, 1-(1,2,3,4,5,6,7,8-Octahydro-2,3,8,8-tetramethyl-2-naphthalenyl) ethanone, reference compound]	1.00	0.0216	1.04E−08 ng/mL in air per ng/mL in IPM

Reference: US20240336868A1, “COMPOSITIONS COMPRISING ADAMANTYL ESTER-CONTAINING COMPOUNDS” (The Procter & Gamble Company, priority 2023, published 2024)
